According to US8895499B2, “β-hairpin peptidomimetics” (Polyphor AG, priority 2010, dated 2014):
≈ marks a conversion by molar mass, not a printed value. Peptide text beside a SMILES is read from it.

Key:
[1] = test system: Shigella boydii DSM 7532; conditions: Mueller-Hinton II broth + 0.02% BSA, 18-20 hours at 37° C.
Protocol: […] colony forming units (CFU)/mL. Aliquots (50 μl) of inoculate were added to 50 μl of MH broth+0.02% BSA containing the peptide in serial two-fold dilutions. The following microorganisms were used to determine antibiotic selectivity of the peptides: Bacillus subtilis DSM 10 and Shigella boydii DSM 7532.

[2] = in vitro; type: cell-based
Protocol: The cytotoxicity of the peptides to HELA cells (Acc57) and COS-7 cells (CRL-1651) was determined using the MTT reduction assay (T. Mossman, J. Immunol. Meth. 1983, 65, 55-63; M. V. Berridge, A. S. Tan, Arch. Biochem. Biophys. 1993, 303, 474-482). Briefly, the method was as follows: 4000 HELA cells/well and 3400 COS-7 cells/well were seeded and grown in 96-well microtiter plates for 24 h at 37° C. at 5% CO2. Thereafter, time zero (Tz) was determined by MTT reduction (see below). The supernatant of the remaining wells was discarded, and fresh medium and compounds in serial dilutions (12.5, 25 and 50 μg/mL, triplicates) were pipetted into the wells. After incubation of the cells for 48 h at 37° C. at 5% CO2 the supernatant was discarded again and 100 μL MTT reagent (0.5 mg/mL in RPMI1640 and DMEM, respectively)/well was added. Following incubation at 37° C. for 2-4 h the media were aspirated and the cells were spiked (100 μL isopropanol/well). The absorbance of the solubilized formazan was measured at 595 nm (OD595peptide). For each concentration averages were calculated from triplicates. The percentage of growth was calculated as follows: (OD595peptide-OD595Tz-OD595Empty well)/(OD595Tz-OD595Empty well)×100%. The GI50 (Growth Inhibition) concentrations were calculated for each peptide by using a trend line function for the concentrations (50, 25, 12.5 and 0 μg/mL), the corresponding percentages and the value 50, (=TREND (C50:C0%50:%0,50).

[3] = test system: human red blood cells (hRBC); type: cell-based; conditions: red cells of human, 1 h
Protocol: The peptides were tested for their hemolytic activity against human red blood cells (hRBC). Fresh hRBC were washed three times with phosphate buffered saline (PBS) and centrifuged for 10 min at 2000×g. Compounds (100 μg/mL) were incubated with 20% hRBC (v/v) for 1 h at 37° C. and shaking at 300 rpm. The final erythrocyte concentration was approximately 0.9×10^9 cells/mL. A value of 0% and 100% cell lyses, respectively, was determined by incubation of hRBC in the presence of PBS containing 0.001% acetic acid and 2.5% Triton X-100 in H2O, respectively. The samples were centrifuged, the supernatants were 8-fold diluted in PBS buffer and the optical densities (OD) were measured at 540 nm. The 100% lyses value (OD540H2O) gave an OD50 of approximately 0.5-1.0.
Percent hemolysis was calculated as follows: (OD540peptide/OD540H2O)×100%.

CC[C@H](C)[C@@H]1NC(=O)[C@H](CCCNC(=N)N)NC(=O)[C@H](Cc2c[nH]c3ccccc23)NC(=O)[C@@H]2CCCN2C(=O)[C@H]2CCCN2C(=O)[C@H](C)NC(=O)[C@H](CCC(N)=O)NC(=O)[C@H](CC(C)C)NC(=O)[C@H](CCCNC(=N)N)NC(=O)[C@H](CCC(N)=O)NC(=O)[C@H]([C@@H](C)O)NC(=O)[C@@H](CCCNC(=N)N)NC(=O)[C@H]([C@@H](C)CC)NC(=O)[C@H](CCCNC(=N)N)NC1=O [Example 12] (HELM PEPTIDE1{W.R.I.R.I.[dR].T.Q.R.L.Q.A.[dP].P}$PEPTIDE1,PEPTIDE1,1:R1-14:R2$$$V2.0)
Shigella boydii DSM 7532 MIC [1]: >16 µg/mL
GI50 at 48 h ([2]; African green monkey): > 50 µg/mL
GI50 at 48 h ([2]; human): > 50 µg/mL
Hemolysis at 100 μg/mL [3]: 0.7%

CC[C@H](C)[C@@H]1NC(=O)[C@H](CCCNC(=N)N)NC(=O)[C@H]([C@@H](C)CC)NC(=O)[C@H](CCCNC(=N)N)NC(=O)[C@H](Cc2c[nH]c3ccccc23)NC(=O)[C@@H]2CCCN2C(=O)[C@H]2CCCN2C(=O)[C@H](C)NC(=O)[C@H](CCC(N)=O)NC(=O)[C@H](CC(C)C)NC(=O)[C@H](CCCNC(=N)N)NC(=O)[C@H](CCC(N)=O)NC(=O)[C@H](CC(N)=O)NC(=O)[C@H](CCCN)NC1=O [Example 9] (HELM PEPTIDE1{W.R.I.R.I.[Orn].N.Q.R.L.Q.A.[dP].P}$PEPTIDE1,PEPTIDE1,1:R1-14:R2$$$V2.0)
Shigella boydii DSM 7532 MIC [1]: >16 µg/mL
GI50 at 48 h ([2]; African green monkey): > 50 µg/mL
GI50 at 48 h ([2]; human): > 50 µg/mL
Hemolysis at 100 μg/mL [3]: 0.0%

CC[C@H](C)[C@@H]1NC(=O)[C@H](CCCNC(=N)N)NC(=O)[C@H](Cc2c[nH]c3ccccc23)NC(=O)[C@@H]2CCCN2C(=O)[C@H]2CCCN2C(=O)[C@H](C)NC(=O)[C@H](CCC(N)=O)NC(=O)[C@H](CC2CCCCC2)NC(=O)[C@H](CCCNC(=N)N)NC(=O)[C@H](CCC(N)=O)NC(=O)[C@H](CC(N)=O)NC(=O)[C@@H](CCCNC(=N)N)NC(=O)[C@H]([C@@H](C)CC)NC(=O)[C@H](CCCNC(=N)N)NC1=O [Example 4] (HELM PEPTIDE1{W.R.I.R.I.[dR].N.Q.R.[Cha].Q.A.[dP].P}$PEPTIDE1,PEPTIDE1,1:R1-14:R2$$$V2.0)
Shigella boydii DSM 7532 MIC [1]: >16 µg/mL
GI50 at 48 h ([2]; African green monkey): > 50 µg/mL
GI50 at 48 h ([2]; human): > 50 µg/mL
Hemolysis at 100 μg/mL [3]: 0.8%

CC[C@H](C)[C@@H]1NC(=O)[C@H](CCCNC(=N)N)NC(=O)[C@H](Cc2c[nH]c3ccccc23)NC(=O)[C@@H]2CCCN2C(=O)[C@H]2CCCN2C(=O)[C@H](C)NC(=O)[C@H](CCC(N)=O)NC(=O)[C@H](CC(C)C)NC(=O)[C@H](CCCNC(=N)N)NC(=O)[C@H](CCC(N)=O)NC(=O)[C@H](Cc2ccc(O)cc2)NC(=O)[C@@H](CCCNC(=N)N)NC(=O)[C@H]([C@@H](C)CC)NC(=O)[C@H](CCCNC(=N)N)NC1=O [Example 14] (HELM PEPTIDE1{W.R.I.R.I.[dR].Y.Q.R.L.Q.A.[dP].P}$PEPTIDE1,PEPTIDE1,1:R1-14:R2$$$V2.0)
Shigella boydii DSM 7532 MIC [1]: 16 µg/mL
GI50 at 48 h ([2]; African green monkey): > 50 µg/mL
GI50 at 48 h ([2]; human): > 50 µg/mL
Hemolysis at 100 μg/mL [3]: 0.0%

CC[C@H](C)[C@@H]1NC(=O)[C@H](CCCNC(=N)N)NC(=O)[C@H](Cc2c[nH]c3ccccc23)NC(=O)[C@@H]2CCCN2C(=O)[C@H]2CCCN2C(=O)[C@H](CCCNC(=N)N)NC(=O)[C@H](CCCNC(=N)N)NC(=O)[C@H](CC(C)C)NC(=O)[C@H](CCN)NC(=O)[C@H](CCCCN)NC(=O)[C@H](CC(N)=O)NC(=O)[C@@H](CCCNC(=N)N)NC(=O)[C@H]([C@@H](C)CC)NC(=O)[C@H](CCCNC(=N)N)NC1=O [Example 1] (HELM PEPTIDE1{W.R.I.R.I.[dR].N.K.[Dab].L.R.R.[dP].P}$PEPTIDE1,PEPTIDE1,1:R1-14:R2$$$V2.0)
Shigella boydii DSM 7532 MIC [1]: 8 µg/mL
GI50 at 48 h ([2]; African green monkey): > 50 µg/mL
GI50 at 48 h ([2]; human): > 50 µg/mL
Hemolysis at 100 μg/mL [3]: 0.0%

CC[C@H](C)[C@@H]1NC(=O)[C@H](CCCNC(=N)N)NC(=O)[C@H](Cc2c[nH]c3ccccc23)NC(=O)[C@@H]2CCCN2C(=O)[C@H]2CCCN2C(=O)[C@H](C)NC(=O)[C@H](CCC(N)=O)NC(=O)[C@H](CC(C)C)NC(=O)[C@H](CCCNC(=N)N)NC(=O)[C@H](CCC(N)=O)NC(=O)[C@H](CCC(N)=O)NC(=O)[C@@H](CCCNC(=N)N)NC(=O)[C@H]([C@@H](C)CC)NC(=O)[C@H](CCCNC(=N)N)NC1=O [Example 11] (HELM PEPTIDE1{W.R.I.R.I.[dR].Q.Q.R.L.Q.A.[dP].P}$PEPTIDE1,PEPTIDE1,1:R1-14:R2$$$V2.0)
Shigella boydii DSM 7532 MIC [1]: >16 µg/mL
GI50 at 48 h ([2]; African green monkey): > 50 µg/mL
GI50 at 48 h ([2]; human): > 50 µg/mL
Hemolysis at 100 μg/mL [3]: 0.0%

CC[C@H](C)[C@@H]1NC(=O)[C@H](CCN)NC(=O)[C@H](Cc2c[nH]c3ccccc23)NC(=O)[C@@H]2CCCN2C(=O)[C@H]2CCCN2C(=O)[C@H](C)NC(=O)[C@H](CCC(N)=O)NC(=O)[C@H](CC(C)C)NC(=O)[C@H](CCCNC(=N)N)NC(=O)[C@H](CCC(N)=O)NC(=O)[C@H](CC(N)=O)NC(=O)[C@@H](CCCNC(=N)N)NC(=O)[C@H]([C@@H](C)CC)NC(=O)[C@H](CCCNC(=N)N)NC1=O [Example 5] (HELM PEPTIDE1{W.[Dab].I.R.I.[dR].N.Q.R.L.Q.A.[dP].P}$PEPTIDE1,PEPTIDE1,1:R1-14:R2$$$V2.0)
Shigella boydii DSM 7532 MIC [1]: 16 µg/mL
GI50 at 48 h ([2]; African green monkey): > 50 µg/mL
GI50 at 48 h ([2]; human): > 50 µg/mL
Hemolysis at 100 μg/mL [3]: 0.0%

CC[C@H](C)[C@@H]1NC(=O)[C@H](CCCNC(=N)N)NC(=O)[C@H](Cc2c[nH]c3ccccc23)NC(=O)[C@@H]2CCCN2C(=O)[C@H]2CCCN2C(=O)[C@H](CCCNC(=N)N)NC(=O)[C@H](CCCNC(=N)N)NC(=O)[C@H](CC(N)=O)NC(=O)[C@H](CCCNC(=N)N)NC(=O)[C@H](Cc2c[nH]cn2)NC(=O)[C@H](CC(N)=O)NC(=O)[C@@H](CCCNC(=N)N)NC(=O)[C@H]([C@@H](C)CC)NC(=O)[C@H](CCCNC(=N)N)NC1=O [Example 18] (HELM PEPTIDE1{W.R.I.R.I.[dR].N.H.R.N.R.R.[dP].P}$PEPTIDE1,PEPTIDE1,1:R1-14:R2$$$V2.0)
Shigella boydii DSM 7532 MIC [1]: 4 µg/mL
GI50 at 48 h ([2]; African green monkey): > 50 µg/mL
GI50 at 48 h ([2]; human): 39 µg/mL (≈ 20.4 µM)
Hemolysis at 100 μg/mL [3]: 0.3%

CC[C@H](C)[C@@H]1NC(=O)[C@H](CCCNC(=N)N)NC(=O)[C@H](Cc2c[nH]c3ccccc23)NC(=O)[C@@H]2CCCN2C(=O)[C@H]2CCCN2C(=O)[C@H](C)NC(=O)[C@H](CCC(N)=O)NC(=O)[C@H](CC(C)C)NC(=O)[C@H](CCCNC(=N)N)NC(=O)[C@H](CCC(N)=O)NC(=O)[C@H](CC(N)=O)NC(=O)[C@@H](CCCNC(=N)N)NC(=O)[C@H]([C@@H](C)CC)NC(=O)[C@H](CCCN)NC1=O [Example 8] (HELM PEPTIDE1{W.R.I.[Orn].I.[dR].N.Q.R.L.Q.A.[dP].P}$PEPTIDE1,PEPTIDE1,1:R1-14:R2$$$V2.0)
Shigella boydii DSM 7532 MIC [1]: 16 µg/mL
GI50 at 48 h ([2]; African green monkey): > 50 µg/mL
GI50 at 48 h ([2]; human): > 50 µg/mL
Hemolysis at 100 μg/mL [3]: 0.0%

CC[C@H](C)[C@@H]1NC(=O)[C@H](CCCNC(=N)N)NC(=O)[C@H](Cc2c[nH]c3ccccc23)NC(=O)[C@@H]2CCCN2C(=O)[C@H]2CCCN2C(=O)[C@H](CCN)NC(=O)[C@H](CCCNC(=N)N)NC(=O)[C@H](CC(N)=O)NC(=O)[C@H](CCN)NC(=O)[C@H](Cc2c[nH]c3ccccc23)NC(=O)[C@H](CC(N)=O)NC(=O)[C@@H](CCN)NC(=O)[C@H]([C@@H](C)CC)NC(=O)[C@H](CCCNC(=N)N)NC1=O [Example 17] (HELM PEPTIDE1{W.R.I.R.I.[NCC[C@@H](N[*:1])C(=O)[*:2]].N.W.[Dab].N.R.[Dab].[dP].P}$PEPTIDE1,PEPTIDE1,1:R1-14:R2$$$V2.0)
Shigella boydii DSM 7532 MIC [1]: 4 µg/mL
GI50 at 48 h ([2]; African green monkey): 44 µg/mL (≈ 24.6 µM)
GI50 at 48 h ([2]; human): 38 µg/mL (≈ 21.2 µM)
Hemolysis at 100 μg/mL [3]: 0.2%

CC[C@H](C)[C@@H]1NC(=O)[C@H](CCCNC(=N)N)NC(=O)[C@H]([C@@H](C)CC)NC(=O)[C@H](CCCNC(=N)N)NC(=O)[C@H](Cc2c[nH]c3ccccc23)NC(=O)[C@@H]2CCCN2C(=O)[C@H]2CCCN2C(=O)[C@H](C)NC(=O)[C@H](CCC(N)=O)NC(=O)[C@H](CC(C)C)NC(=O)[C@H](CCCNC(=N)N)NC(=O)[C@H](CCC(N)=O)NC(=O)[C@H](CC(N)=O)NC(=O)[C@H](CCN)NC1=O [Example 10] (HELM PEPTIDE1{W.R.I.R.I.[Dab].N.Q.R.L.Q.A.[dP].P}$PEPTIDE1,PEPTIDE1,1:R1-14:R2$$$V2.0)
Shigella boydii DSM 7532 MIC [1]: >16 µg/mL
GI50 at 48 h ([2]; African green monkey): > 50 µg/mL
GI50 at 48 h ([2]; human): > 50 µg/mL
Hemolysis at 100 μg/mL [3]: 0.4%
